From patent US11098055B2, “Ester ACC inhibitors and uses thereof” (Gilead Apollo, LLC, priority 2015, dated 2021)
In brackets after ≈: the same amount, converted by molar mass.

Legend:
[1] = biological target: hACC2 (Homo sapiens, UniProt O00763); experiment: In vitro ACC2 inhibition assay (ADP-Glo), human ACC2; type: biochemical
Experimental: An exemplary procedure for the in vitro ACC inhibition assay, which can be used to determine the inhibitory action of compounds of the invention toward either human (hACC2) or fungal (fACC2) ACC2, follows. The ADP-Glo™ Kinase Assay kit from Promega was used. The ADP-Glo™ Kinase Assay is a luminescent ADP detection assay to measure enzymatic activity by quantifying the amount of ADP produced during an enzyme reaction. The assay is performed in two steps; first, after the enzyme reaction, an equal volume of ADP-Glo™ Reagent is added to terminate the reaction and deplete the remaining ATP. Second, the Kinase Detection Reagent is added to simultaneously convert ADP to ATP and allow the newly synthesized ATP to be measured using a luciferase/luciferin reaction. Luminescence can be correlated to ADP concentrations by using an ATP-to-ADP conversion curve. The detailed procedure is as follows. 50 μL of the compound being tested (600 μM in DMSO) was added to a 384-well dilution plate. The compound was diluted 1:3 in succession in DMSO for each row for 11 wells. 0.5 μL ACC2 working solution was added to 384-well white Optiplate assay plate. 0.5 μL diluted compound solution in each column from step 2 was added to assay plate, each row containing 2 replicates. For the last 2 rows, 0.5 μL negative control (DMSO) was added in one row and 0.5 μL positive control (compound I-97) in the other. The plates were incubated at room temperature for 15 minutes. 5 μL substrate working solution was added to each well to initiate reaction. Final ACC2 reaction concentrations consist of: 5 nM ACC2, 20 μM ATP, 20 μM acetyl-CoA, 12 mM NaHCO3, 0.01% Brij35, 2 mM DTT, 5% DMSO, test compound concentrations: 30 μM, 10 μM, 3.33 μM, 1.11 μM, 0.37 μM, 0.123 μM, 0.0411 μM, 0.0137 μM, 0.00457 μM, 0.00152 μM, and 0.00051 μM. Plates were incubated at room temperature for 60 minutes. 10 μL ADP glo reagent was added. Plates were incubated at room temperature for 40 minutes. 20 μL kinase detection reagent was added. Plates were incubated at room temperature for 40 minutes, and then read on a Perkin Elmer EnVision 2104 plate reader for luminescence as Relative Light Units (RLU).
Data for each concentration, as well as the positive and negative controls, were averaged, and the standard deviation calculated. Percent inhibition was calculated by the formula: 100×(average negative control−compound)/(average negative control−average positive control). The IC50 for each compound was calculated by fitting the data with a non-linear regression equation: Y=Bottom+(Top−Bottom)/(1+10^((Log IC50−X)*HillSlope)), where X is the log of compound concentration and Y is percent inhibition.

[2] = test system: C. albicans ATCC 90028; experiment: Anti-Fungal (Candida) Activity Assay, broth microtiter MIC; type: cell-based; settings: ATCC90028, 48 h, 3 replicates, MIC read at 48 h
Experimental: (§1) Compounds of the present invention were evaluated in an Anti-Fungal Activity Assay. An exemplary procedure for the assay, which measures the susceptibility of various Candida species to anti-fungal compounds, follows. Compounds to be tested (including fluconazole and amphotericin B) were dissolved in DMSO to obtain a solution having a concentration of 1 mg/mL. These stock solutions were sterile filtered using a 0.22 um nylon syringe filter, then diluted in sterile water to achieve a final concentration of 128 μg/mL.
(§2) All species were grown from frozen stock by directly plating on to freshly prepared Sabouraud Dextrose agar (BD, Difco) and incubated overnight in ambient air at 35° C. for 24 h. A direct suspension was prepared in RPMI 1640+MOPS (Lonza, Biowhittaker) by taking individual colonies from the overnight cultures using sterile swabs soaked in sterile saline. The concentration of the suspension was determined using pre-determined standard curves. These suspensions were then diluted down to 5×10^3 CFU/mL to achieve a final concentration of 2.5×10^3 CFU/mL once added to the microtiter plate as per CLSI guidelines (M27-A3, Vol. 28 No. 14).
(§3) Broth microtiter MIC challenge plates were prepared following CLSI guidelines (M27-A3, Vol. 28 No. 14). The original CLSI guidelines focused on reading Candida MICs after 48 h of incubation. As reading after only 24 h offers a clear advantage of patient care, QC limits are being established for all drugs at 24 h. That being said there are no known interpretive breakpoints for amphotericin B at 24 h and the current fluconazole interpretive breakpoints are based on a 48 h reading. The MIC for the test compounds were recorded at 48 h. All MIC determinations were achieved by visually comparing the growth found in the antibiotic challenged wells to that of the growth control.

[3] = test system: C. parapsilosis ATCC 22019; experiment: as above; type: cell-based; settings: Lodderomyces parapsilosis, ATCC22019, 48 h, 3 replicates, MIC read at 48 h
Experimental: as §1, §2, §3

[4] = test system: C. krusei ATCC 6258; experiment: as above; type: cell-based, Candida krusei; settings: Pichia kudriavzevii, ATCC6258, 48 h, 3 replicates, MIC read at 48 h
Experimental: as §1, §2, §3

hACC2, sequence (O00763 whole entry): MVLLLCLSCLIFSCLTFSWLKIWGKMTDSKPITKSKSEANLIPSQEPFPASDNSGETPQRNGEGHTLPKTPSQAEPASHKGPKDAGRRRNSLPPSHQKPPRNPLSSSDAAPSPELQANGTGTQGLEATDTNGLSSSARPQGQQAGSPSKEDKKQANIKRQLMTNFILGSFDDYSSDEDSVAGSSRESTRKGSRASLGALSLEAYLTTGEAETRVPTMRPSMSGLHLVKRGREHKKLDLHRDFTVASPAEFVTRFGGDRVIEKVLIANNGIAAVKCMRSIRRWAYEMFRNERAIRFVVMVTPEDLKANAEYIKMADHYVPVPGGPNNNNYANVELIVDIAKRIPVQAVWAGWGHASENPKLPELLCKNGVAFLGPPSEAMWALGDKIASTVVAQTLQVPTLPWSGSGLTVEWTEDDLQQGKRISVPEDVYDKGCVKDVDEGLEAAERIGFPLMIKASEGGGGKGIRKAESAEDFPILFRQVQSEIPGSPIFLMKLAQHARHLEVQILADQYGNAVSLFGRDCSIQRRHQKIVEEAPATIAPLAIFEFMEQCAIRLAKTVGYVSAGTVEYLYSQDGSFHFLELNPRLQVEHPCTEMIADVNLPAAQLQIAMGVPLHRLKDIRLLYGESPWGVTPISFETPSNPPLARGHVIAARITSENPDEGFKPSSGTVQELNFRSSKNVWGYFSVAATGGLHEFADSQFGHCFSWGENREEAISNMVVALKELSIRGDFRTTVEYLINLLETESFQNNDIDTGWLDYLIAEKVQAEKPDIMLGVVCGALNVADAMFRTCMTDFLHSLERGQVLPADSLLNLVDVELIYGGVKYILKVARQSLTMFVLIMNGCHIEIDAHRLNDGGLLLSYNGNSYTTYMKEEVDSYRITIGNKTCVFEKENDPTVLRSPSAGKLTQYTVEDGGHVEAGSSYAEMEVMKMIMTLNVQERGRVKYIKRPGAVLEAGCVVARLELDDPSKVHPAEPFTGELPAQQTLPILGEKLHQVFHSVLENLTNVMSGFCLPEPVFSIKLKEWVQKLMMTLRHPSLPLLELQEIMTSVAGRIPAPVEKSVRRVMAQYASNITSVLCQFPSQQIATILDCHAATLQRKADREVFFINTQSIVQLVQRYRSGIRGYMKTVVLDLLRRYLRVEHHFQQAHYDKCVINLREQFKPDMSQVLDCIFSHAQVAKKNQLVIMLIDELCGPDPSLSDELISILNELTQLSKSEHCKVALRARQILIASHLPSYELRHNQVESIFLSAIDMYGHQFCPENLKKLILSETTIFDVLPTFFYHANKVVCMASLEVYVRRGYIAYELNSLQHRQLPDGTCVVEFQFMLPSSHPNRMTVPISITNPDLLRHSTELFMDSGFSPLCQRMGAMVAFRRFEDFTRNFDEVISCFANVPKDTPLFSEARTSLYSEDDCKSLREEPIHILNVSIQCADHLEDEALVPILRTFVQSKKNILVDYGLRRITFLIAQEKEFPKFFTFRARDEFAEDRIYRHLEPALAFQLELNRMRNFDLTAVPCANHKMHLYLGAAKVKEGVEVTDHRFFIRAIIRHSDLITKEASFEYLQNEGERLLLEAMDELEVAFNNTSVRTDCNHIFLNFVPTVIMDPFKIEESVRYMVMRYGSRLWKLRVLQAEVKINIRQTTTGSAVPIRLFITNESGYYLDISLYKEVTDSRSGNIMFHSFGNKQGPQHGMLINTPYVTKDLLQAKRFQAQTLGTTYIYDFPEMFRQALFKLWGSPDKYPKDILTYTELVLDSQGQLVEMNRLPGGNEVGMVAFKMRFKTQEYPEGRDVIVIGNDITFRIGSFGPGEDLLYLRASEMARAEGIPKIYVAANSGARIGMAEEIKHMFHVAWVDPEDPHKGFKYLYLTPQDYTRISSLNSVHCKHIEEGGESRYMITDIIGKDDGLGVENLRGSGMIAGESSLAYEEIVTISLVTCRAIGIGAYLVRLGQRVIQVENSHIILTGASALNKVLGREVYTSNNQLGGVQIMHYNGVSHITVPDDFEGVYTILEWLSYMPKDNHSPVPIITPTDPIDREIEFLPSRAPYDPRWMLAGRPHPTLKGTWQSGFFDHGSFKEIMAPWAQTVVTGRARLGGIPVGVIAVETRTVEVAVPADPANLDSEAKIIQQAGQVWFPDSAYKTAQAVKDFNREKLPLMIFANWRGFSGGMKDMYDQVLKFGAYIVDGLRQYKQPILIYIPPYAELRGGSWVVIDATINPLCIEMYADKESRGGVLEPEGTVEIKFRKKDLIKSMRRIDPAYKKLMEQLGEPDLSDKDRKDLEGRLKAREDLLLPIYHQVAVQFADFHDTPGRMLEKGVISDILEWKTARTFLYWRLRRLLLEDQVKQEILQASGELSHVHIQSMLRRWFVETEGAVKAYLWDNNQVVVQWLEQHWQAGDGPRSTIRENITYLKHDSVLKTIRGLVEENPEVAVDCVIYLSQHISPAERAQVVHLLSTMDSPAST

| SMILES | IC50 ([1]; Table 2a) | IC50 ([1]; Table 2b (additional results)) | MIC ([2]; Table 3a) | MIC ([2]; Table 3b (additional results)) | MIC ([3]; Table 3a) | MIC ([3]; Table 3b (additional results)) | MIC ([4]; Table 3a) | MIC ([4]; Table 3b (additional results)) |
| --- | --- | --- | --- | --- | --- | --- | --- | --- |
| CCOC(=O)c1sc2c(c1C)c(=O)n(C(C)(C)C(=O)NC(C)C)c(=O)n2C[C@H](OCCC#N)c1cc(F)ccc1OC [Compound I-15, (R)-ethyl 1-(2-(2-cyanoethoxy)-2-(5-fluoro-2-methoxy-phenyl)ethyl)-3-(1-(isopropylamino)-2-methyl-1-oxopropan-2-yl)-5-methyl-2,4-dioxo-1,2,3,4-tetrahydrothieno[2,3-d]pyrimidine-6-carboxylate] | 0.01 to 0.04 µM | 0.003 to 0.01 µM | 0.25 to 1 mg/L (≈ 0.415 to 1.66 µM) | 0.25 to 1 mg/L (≈ 0.415 to 1.66 µM) | 0.25 to 1 mg/L (≈ 0.415 to 1.66 µM) | 2.1 to 4 mg/L (≈ 3.48 to 6.64 µM) | 0.25 to 1 mg/L (≈ 0.415 to 1.66 µM) | 0.25 to 1 mg/L (≈ 0.415 to 1.66 µM) |
| CCOC(=O)c1sc2c(c1C)c(=O)n([C@@H](C)C(N)=O)c(=O)n2C[C@H](OCCC#N)c1cc(F)ccc1OC [Compound I-25, ethyl 3-((S)-1-amino-1-oxopropan-2-yl)-1-((R)-2-(2-cyanoethoxy)-2-(5-fluoro-2-methoxyphenyl)ethyl)-5-methyl-2,4-dioxo-1,2,3,4-tetrahydrothieno[2,3-d]pyrimidine-6-carboxylate] | – | 0.003 to 0.01 µM | – | 2.1 to 4 mg/L (≈ 3.84 to 7.32 µM) | – | 2.1 to 4 mg/L (≈ 3.84 to 7.32 µM) | – | 1.1 to 2 mg/L (≈ 2.01 to 3.66 µM) |
| CCNC(=O)C(C)(C)n1c(=O)c2c(C)c(C(=O)OCC)sc2n(C[C@H](OCCC#N)c2cc(F)ccc2OC)c1=O [Compound I-29, (R)-ethyl 1-(2-(2-cyanoethoxy)-2-(5-fluoro-2-methoxy-phenyl)ethyl)-3-(1-(ethylamino)-2-methyl-1-oxopropan-2-yl)-5-methyl-2,4-dioxo-1,2,3,4-tetrahydrothieno[2,3-d]pyrimidine-6-carboxylate] | – | 0.003 to 0.01 µM | – | 1.1 to 2 mg/L (≈ 1.87 to 3.4 µM) | – | 2.1 to 4 mg/L (≈ 3.57 to 6.8 µM) | – | 2.1 to 4 mg/L (≈ 3.57 to 6.8 µM) |
| CCOC(=O)c1sc2c(c1C)c(=O)n([C@H](C)C(=O)N(C)C(C)C)c(=O)n2C[C@H](OCCC#N)c1cc(F)ccc1OC [Compound I-27, ethyl 1-((R)-2-(2-cyanoethoxy)-2-(5-fluoro-2-methoxy-phenyl)ethyl)-3-((R)-1-(isopropyl(methyl)amino)-1-oxopropan-2-yl)-5-methyl-2,4-dioxo-1,2,3,4-tetrahydrothieno[2,3-d]pyrimidine-6-carboxylate] | – | 0.0003 to 0.003 µM | – | 2.1 to 4 mg/L (≈ 3.48 to 6.64 µM) | – | 2.1 to 4 mg/L (≈ 3.48 to 6.64 µM) | – | 0.25 to 1 mg/L (≈ 0.415 to 1.66 µM) |
| CCOC(=O)c1sc2c(c1C)c(=O)n(C(C)(C)C(=O)NC(C)C)c(=O)n2C[C@H](OCC(C)(C)C#N)c1ccccc1OC [Compound I-38, ethyl (R)-1-(2-(2-cyano-2-methylpropoxy)-2-(2-methoxyphenyl)ethyl)-3-(1-(isopropylamino)-2-methyl-1-oxopropan-2-yl)-5-methyl-2,4-dioxo-1,2,3,4-tetrahydrothieno[2,3-d]pyrimidine-6-carboxylate] | – | 0.01 to 0.04 µM | – | 0.25 to 1 mg/L (≈ 0.408 to 1.63 µM) | – | 2.1 to 4 mg/L (≈ 3.43 to 6.53 µM) | – | > 4.1 mg/L |
| CCOC(=O)c1sc2c(c1C)c(=O)n(C(C)(C)C(=O)NC(C)C)c(=O)n2C[C@H](OC(C)C)c1ccccc1OC [Compound I-9, (R)-ethyl 1-(2-isopropoxy-2-(2-methoxyphenyl)ethyl)-3-(1-(isopropylamino)-2-methyl-1-oxopropan-2-yl)-5-methyl-2,4-dioxo-1,2,3,4-tetrahydrothieno[2,3-d]pyrimidine-6-carboxylate] | 0.01 to 0.04 µM | 0.01 to 0.04 µM | 1.1 to 2 mg/L (≈ 1.92 to 3.49 µM) | 1.1 to 2 mg/L (≈ 1.92 to 3.49 µM) | 2.1 to 4 mg/L (≈ 3.66 to 6.97 µM) | 2.1 to 4 mg/L (≈ 3.66 to 6.97 µM) | 2.1 to 4 mg/L (≈ 3.66 to 6.97 µM) | 2.1 to 4 mg/L (≈ 3.66 to 6.97 µM) |
| CCOC(=O)c1sc2c(c1C)c(=O)n(C(C)(C)C(=O)NC(C)C)c(=O)n2C[C@H](OCCO)c1cc(F)ccc1OC [Compound I-18, (R)-ethyl 1-(2-(5-fluoro-2-methoxyphenyl)-2-(2-hydroxy-ethoxy)ethyl)-3-(1-(isopropylamino)-2-methyl-1-oxopropan-2-yl)-5-methyl-2,4-dioxo-1,2,3,4-tetrahydrothieno[2,3-d]pyrimidine-6-carboxylate] | 0.01 to 0.04 µM | – | 1.1 to 2 mg/L (≈ 1.85 to 3.37 µM) | 1.1 to 2 mg/L (≈ 1.85 to 3.37 µM) | 2.1 to 4 mg/L (≈ 3.54 to 6.74 µM) | 1.1 to 2 mg/L (≈ 1.85 to 3.37 µM) | 0.25 to 1 mg/L (≈ 0.421 to 1.68 µM) | 0.25 to 1 mg/L (≈ 0.421 to 1.68 µM) |
| CCOC(=O)c1sc2c(c1C)c(=O)n(C(C)(C)C(=O)N1CCCC1)c(=O)n2C[C@H](O)c1cc(F)ccc1OC [Compound I-22, (R)-ethyl 1-(2-(5-fluoro-2-methoxyphenyl)-2-hydroxyethyl)-5-methyl-3-(2-methyl-1-oxo-1-(pyrrolidin-1-yl)propan-2-yl)-2,4-dioxo-1,2,3,4-tetrahydrothieno[2,3-d]pyrimidine-6-carboxylate] | – | 0.01 to 0.04 µM | – | 2.1 to 4 mg/L (≈ 3.74 to 7.12 µM) | – | 0.25 to 1 mg/L (≈ 0.445 to 1.78 µM) | – | 2.1 to 4 mg/L (≈ 3.74 to 7.12 µM) |
| CCOC(=O)c1sc2c(c1C)c(=O)n([C@@H](C)C(=O)NC(C)C)c(=O)n2C[C@H](OCCC#N)c1cc(F)ccc1OC [Compound I-20, ethyl 1-((R)-2-(2-cyanoethoxy)-2-(5-fluoro-2-methoxy-phenyl)ethyl)-3-((S)-1-(isopropylamino)-1-oxopropan-2-yl)-5-methyl-2,4-dioxo-1,2,3,4-tetrahydrothieno[2,3-d]pyrimidine-6-carboxylate] | – | 0.003 to 0.01 µM | – | 2.1 to 4 mg/L (≈ 3.57 to 6.8 µM) | – | 2.1 to 4 mg/L (≈ 3.57 to 6.8 µM) | – | 1.1 to 2 mg/L (≈ 1.87 to 3.4 µM) |
| CCOC(=O)c1sc2c(c1C)c(=O)n([C@@H](C)C(=O)N1CCCC1)c(=O)n2C[C@H](OCCC#N)c1cc(F)ccc1OC [Compound I-23, ethyl 1-((R)-2-(2-cyanoethoxy)-2-(5-fluoro-2-methoxy-phenyl)ethyl)-5-methyl-2,4-dioxo-3-((S)-1-oxo-1-(pyrrolidin-1-yl)propan-2-yl)-1,2,3,4-tetrahydrothieno[2,3-d]pyrimidine-6-carboxylate] | – | 0.003 to 0.01 µM | – | 2.1 to 4 mg/L (≈ 3.5 to 6.66 µM) | – | > 4.1 mg/L | – | 0.25 to 1 mg/L (≈ 0.416 to 1.66 µM) |
| CCOC(=O)c1sc2c(c1C)c(=O)n(C(C)(C)C(=O)NC(C)C)c(=O)n2C[C@H](OC[C@H](C)C#N)c1cc(F)ccc1OC [Compound I-34, ethyl 1-((R)-2-((R)-2-cyanopropoxy)-2-(5-fluoro-2-methoxyphenyl)ethyl)-3-(1-(isopropylamino)-2-methyl-1-oxopropan-2-yl)-5-methyl-2,4-dioxo-1,2,3,4-tetrahydrothieno[2,3-d]pyrimidine-6-carboxylate] | – | 0.01 to 0.04 µM | – | 0.25 to 1 mg/L (≈ 0.405 to 1.62 µM) | – | 2.1 to 4 mg/L (≈ 3.41 to 6.49 µM) | – | 2.1 to 4 mg/L (≈ 3.41 to 6.49 µM) |
